Data published in patent USRE30241E, “Esters of 3-(hydroxy or hydroxymethyl)-4-hydroxyphenyl aminomethyl ketones” (Sterling Drug Inc., priority 1970, dated 1980).
Like-named read-outs stand apart in the source and are kept apart here.

Assays:
[1] = system: guinea pig bronchioles constricted by carbachol; test: Bronchodilator Test Method II, in vitro perfused guinea pig lung
Description: In this method bronchodilator activity in vitro was determined by testing the effect of graded doses of the test compounds on guinea pig bronchioles constricted by carbachol, using the technique reported by Sollman and von Oettingen, Proc. Soc, Exp. Biol. Med., 25,692 (1928) as modified by Tainter, Pedden, and James, J. Pharm. Exp. Ther., 51, 371 (1934) and by Luduena, von Euler, Tullar, and Lands, Arch. intern. Pharmacol., III, 392 (1957).

[2] = system: carbachol- or histamine-induced bronchoconstriction; test: Bronchodilator Test Method I, anesthetized dog, intraduodenal activity; format: in vivo; conditions: Canis lupus familiaris, read-out: Bronchodilation; for inhibition in vivo at 0.032 mg/kg: 32 mcg/kg (salt) intraduodenal; for inhibition in vivo at 0.128 mg/kg: 128 mcg/kg (salt) intraduodenal; for inhibition in vivo at 0.038 mg/kg: 38 mcg/kg (salt) intraduodenal; for inhibition in vivo at 0.45 mg/kg: 450 mcg/kg (salt) intraduodenal
Description: (§1) Male and female dogs weighing 9-18 kg. each were anesthetized with pentobarbital sodium (30 mg./kg. i.v.). Each animal, with thorax opened at the midsternum, was maintained under artificial ventilation using a constant volume pump (250 ml./stroke; 10 to 12 strokes per minute) attached to the tracheal cannula. The flow of air was controlled by a glass or plastic valve which closed and opened respectively on inflow and outflow of the air to and from the tracheal cannula. Bronchoconstriction and/or bronchodilatation were measured from changes in the basal airway pressure reflected by a transducer attached to the sidearm of the cannula relayed to a polygraph.
Control bronchoconstrictions were induced by intravenous injections of carbachol (choline chloride carbamate) in doses ranging from 4 to 6 micrograms per kilogram or histamine diphosphate in doses ranging from 35 to 45 micrograms per kilogram. In the majority of test animals, the above doses of constrictor agents produced a 100-200 percent increase in the normal airway pressure or amplitude.
Injections were repeated at 20-30 minutes.
In intraduodenal studies, in the dog prepared for bronchodilation measurements, the duodenal segment of the small intestine was made easily accessible through a small mid-line incision in the abdomen. The test solution was injected into the duodenum using a fine needle. Commencing 5 minutes after medication, the degree and duration of bronchodilation were tested by injecting a control dose of carbachol or histamine at intervals of 30-60 minutes until the recovery or near-recovery was apparent. In some dogs showing an early recovery, a reference drug was also tested in the same dog 1.5-2 hours after the first medicine.

[3] = system: carbachol- or histamine-induced bronchoconstriction; test: Bronchodilator Test Method I, anesthetized dog, intravenous activity; format: in vivo; conditions: Canis lupus familiaris, read-out: Bronchodilatation; for inhibition in vivo at 0.008 mg/kg: 8 mcg/kg i.v.; for inhibition in vivo at 0.032 mg/kg: 32 mcg/kg i.v.; for inhibition in vivo at 0.128 mg/kg: 128 mcg/kg i.v.; for inhibition in vivo at 0.0012 mg/kg: 1.2 mcg/kg i.v.; for inhibition in vivo at 0.006 mg/kg: 6.0 mcg/kg i.v.
Description: Bronchodilator activity was tested in anesthetized dogs (Test Method I) and in vitro on the perfused guinea pig lung (Test Method II), using the following pharmacological test procedures
as §1
Control bronchoconstrictions were induced by intravenous injections of carbachol (choline chloride carbamate) in doses ranging from 4 to 6 micrograms per kilogram or histamine diphosphate in doses ranging from 35 to 45 micrograms per kilogram.
Solutions of the test compounds were prepared in distilled water or in saline (for infusion). […] These solutions were then tested for bronchodilator activity in three ways, viz. (1) by mixing a graded dose of test compound with the constant does of carbachol or histamine in a syringe and injecting the mixture into the femoral vein of the dog, (2) by producing the bronchoconstriction first and injecting the test compound at the time of maximum constriction, and (3) by injecting the test compound first followed by carbachol or histamine in 1-10 minutes. Injections were repeated at 20-30 minutes. Bronchodilator values were obtained by measuring the areas under the response polygraph tracings (the first 5 munite period) of carbachol or histamine controls and of the experimentals using a planimeter. Decrease in the area thus measured was expressed as a percent bronchodilatation in reference to the area of control carbachol or histamine constriction. The mean bronchodilatations (the reductions in constrictions) were plotted against the doses administered and the mean effective dose (ED50) was estimated in micrograms/kilogram from the does-response curves. Blood pressure recording was taken from the femoral artery using an arterial transducer relayed to a polygraph.

With `CC(C)(C)NCC(O)c1ccc(OC(=O)C(C)(C)C)c(O)c1` (stereo not drawn) [Example 59, 3-hydroxy-4-(pivalyloxy)-alpha-(tert-butylaminomethyl)benzyl alcohol methanesulfonate] the ED50 ([1]; carbachol (Doryl) 1:5 million) was 1.2 µg (base) and the “Duration, Mean” value ([1]; dose 3.2 mcg (base)) was 25 ± 5.6 min.
`CC(=O)OCc1cc(C(O)CNC(C)(C)C)ccc1OC(=O)C12CC3CC(CC(C3)C1)C2` (stereo not drawn) [Example 152, 3-(acetoxymethyl)-4-(1-adamantanecarbonyloxy)-alpha-(tert-butylaminomethyl)benzyl alcohol methanesulfonate] gave an inhibition in vivo at 0.032 mg/kg ([2]; 5 min, 5 min) of 6%, an inhibition in vivo at 0.128 mg/kg ([2]; 5 min, 5 min) of 6% and an inhibition in vivo at 0.032 mg/kg ([2]; 0.5 h, 30 min) of 6%. For the same compound, the inhibition in vivo at 0.128 mg/kg ([2]; 0.5 h, 30 min) was 43%, the inhibition in vivo at 0.032 mg/kg ([2]; 1 h, 60 min) was 17% and the inhibition in vivo at 0.128 mg/kg ([2]; 1 h, 60 min) was 59%. The inhibition in vivo at 0.032 mg/kg ([2]; 2 h, 120 min) was 48%, the inhibition in vivo at 0.128 mg/kg ([2]; 2 h, 120 min) was 51% and the inhibition in vivo at 0.032 mg/kg ([2]; 3 h, 180 min) was 45%. For the same compound, the inhibition in vivo at 0.128 mg/kg ([2]; 3 h, 180 min) was 65%, the inhibition in vivo at 0.032 mg/kg ([2]; 4 h, 240 min) was 45% and the inhibition in vivo at 0.128 mg/kg ([2]; 4 h, 240 min) was 59%. It also gave an inhibition in vivo at 0.032 mg/kg ([2]; 5 h, 300 min) of 21%, an inhibition in vivo at 0.128 mg/kg ([2]; 5 h, 300 min) of 54% and an inhibition in vivo at 0.008 mg/kg ([3]; 5 min, 5 min) of 44%. It also gave an inhibition in vivo at 0.032 mg/kg ([3]; 5 min, 5 min) of 77%, an inhibition in vivo at 0.128 mg/kg ([3]; 5 min, 5 min) of 97% and an inhibition in vivo at 0.008 mg/kg ([3]; 0.5 h, 30 min) of 39%. It also gave an inhibition in vivo at 0.032 mg/kg ([3]; 0.5 h, 30 min) of 78%, an inhibition in vivo at 0.128 mg/kg ([3]; 0.5 h, 30 min) of 92% and an inhibition in vivo at 0.008 mg/kg ([3]; 1 h, 60 min) of 50%. For the same compound, the inhibition in vivo at 0.032 mg/kg ([3]; 1 h, 60 min) was 75%, the inhibition in vivo at 0.128 mg/kg ([3]; 1 h, 60 min) was 93% and the inhibition in vivo at 0.008 mg/kg ([3]; 2 h, 120 min) was 33%. The inhibition in vivo at 0.032 mg/kg ([3]; 2 h, 120 min) was 70%, the inhibition in vivo at 0.128 mg/kg ([3]; 2 h, 120 min) was 87% and the inhibition in vivo at 0.008 mg/kg ([3]; 3 h, 180 min) was 39%. It also gave an inhibition in vivo at 0.032 mg/kg ([3]; 3 h, 180 min) of 63%, an inhibition in vivo at 0.128 mg/kg ([3]; 3 h, 180 min) of 89% and an inhibition in vivo at 0.008 mg/kg ([3]; 4 h, 240 min) of 39%. For the same compound, the inhibition in vivo at 0.032 mg/kg ([3]; 4 h, 240 min) was 52%, the inhibition in vivo at 0.128 mg/kg ([3]; 4 h, 240 min) was 88% and the inhibition in vivo at 0.008 mg/kg ([3]; 4.5 h, 270 min) was 0%. For the same compound, the inhibition in vivo at 0.032 mg/kg ([3]; 4.5 h, 270 min) was 45% and the inhibition in vivo at 0.128 mg/kg ([3]; 4.5 h, 270 min) was 82%.
`CC(C)C(=O)Oc1ccc(C(O)CNC(C)(C)C)cc1OC(=O)C(C)C.Cl` (stereo not drawn) [Example 2, 3,4-bis(isobutyryloxy)-alpha-(tert-butylaminomethyl)benzyl alcohol hydrochloride] was tested, and the ED50 ([1]; carbachol (Doryl) 1:5 million) was 0.28 µg (base) and the “Duration, Mean” value ([1]; dose 0.5 mcg (base)) was 9 ± 1.1 min.
`CC(=O)Oc1ccc(C(O)CNC(C)(C)C)cc1OC(=O)c1ccc(C)cc1` (stereo not drawn) [Example 146, 3-(p-toluyloxy)-4-acetoxy-alpha-(tert-butylaminomethyl)benzyl alcohol methanesulfonate] showed an inhibition in vivo at 0.038 mg/kg ([2]; 5 min, 5 min) of 60%, an inhibition in vivo at 0.038 mg/kg ([2]; 0.5 h, 30 min) of 39% and an inhibition in vivo at 0.038 mg/kg ([2]; 1 h, 60 min) of 39%. The inhibition in vivo at 0.038 mg/kg ([2]; 2 h, 120 min) was 26%, the inhibition in vivo at 0.038 mg/kg ([2]; 3 h, 180 min) was 33% and the inhibition in vivo at 0.038 mg/kg ([2]; 4 h, 240 min) was 24%. It also gave an inhibition in vivo at 0.038 mg/kg ([2]; 5 h, 300 min) of 13%, an inhibition in vivo at 0.0012 mg/kg ([3]; 5 min, 5 min) of 31% and an inhibition in vivo at 0.006 mg/kg ([3]; 5 min, 5 min) of 66%. The inhibition in vivo at 0.0012 mg/kg ([3]; 0.5 h, 30 min) was 38%, the inhibition in vivo at 0.006 mg/kg ([3]; 0.5 h, 30 min) was 57% and the inhibition in vivo at 0.0012 mg/kg ([3]; 1 h, 60 min) was 44%. For the same compound, the inhibition in vivo at 0.006 mg/kg ([3]; 1 h, 60 min) was 63%, the inhibition in vivo at 0.0012 mg/kg ([3]; 3 h, 180 min) was 20% and the inhibition in vivo at 0.0012 mg/kg ([3]; 4 h, 240 min) was 20%.
For `Cc1ccc(C(=O)Oc2ccc(C(O)CNC(C)C)cc2OC(=O)c2ccc(C)cc2)cc1` (stereo not drawn) [Example 89, 3,4-bis(p-toluyloxy)-alpha-(isopropylaminomethyl)benzyl alcohol], the ED50 ([1]; carbachol (Doryl) 1:5 million) was 6.4 µg (base) and the “Duration, Mean” value ([1]; dose 15 mcg (base)) was 125 ± 31 min.
For “3,4-bis(p-toluyloxy)-alpha-[1-(tert-butylaminomethyl)propyl]benzyl alcohol hydrochloride [Example 144]”, the “Duration, Mean” value ([1]; dose 500 mcg (base)) was 83 ± 26.8 min.
Work on `Cc1ccc(C(=O)Oc2ccc(C(O)CN)cc2OC(=O)c2ccc(C)cc2)cc1` (stereo not drawn) [Example 127, 3,4-bis(p-toluyloxy)-alpha-(aminomethyl)benzyl alcohol methanesulfonate] yielded an inhibition in vivo at 0.45 mg/kg ([2]; 5 min, 5 min) of 16%, an inhibition in vivo at 0.45 mg/kg ([2]; 10 min, 10 min) of 16% and an inhibition in vivo at 0.45 mg/kg ([2]; 1 h, 60 min) of 0%. It also gave an inhibition in vivo at 0.45 mg/kg ([2]; […], after 90 min) of 0%.
With `COc1ccc(C(=O)Oc2ccc(C(O)CNC(C)(C)C)cc2OC(=O)c2ccccc2)cc1` (stereo not drawn) [Example 143, 3-benzoyloxy-4-(p-anisoyloxy)-alpha-(tert-butylaminomethyl)benzyl alcohol] the ED50 ([1]; Doryl conc. 1:10 million) was 1.53 µg (base) and the “Duration, Mean” value ([1]; dose 2 mcg (base), Doryl conc. 1:10 million) was 29.2 ± 10.2 min.
